{
  "source": "patent US9765061B2",
  "about": "“Trail enhancers for the selective killing of cancer cells” (The Scripps Research Institute, priority 2013, dated 2017)",
  "key": {"[1]": {"test_system": "bone marrow-derived macrophages (BMDM)", "assay": "Responses of bone marrow-derived macrophages to AHLs (toxicity, Western blot)", "type": "cell-based, mouse", "experimental": "FIG. 13. AHL-mediated inhibition of inflammation-induced NF-κB signaling is sufficient for rendering tumors susceptible to TRAIL-induced apoptosis. a) Western blot analysis of PARP cleavage in cancer cells stimulated for 3 h with TRAIL or its combination with different AHLs as indicated, b) Western blot analysis of PARP cleavage as well as phosphorylated forms of eIF2α and p38 in extracts from bone marrow-derived macrophages (BMDM) stimulated with (C12) or (3-N2), i.e., (S)-(3-N2), as indicated, c) Western blot analysis of PARP cleavage and temporal profiles of IκBα expression in BMDM extracts prepared after treatment with LPS or its combination with (C12) or (3-N2). d) Inhibitory effect of (C12) and its derivatives on LPS-induced TNF production in BMDM. e) Lung cancer cells were exposed to (3-N2) (10 μM), TRAIL (0.5 ng/ml), TNF (20 ng/ml) or their combinations as indicated. After 2 h, cell lysates were prepared and analyzed by Western blot for PARP cleavage, IκBα and actin.\nMice, bone marrow-derived macrophages and other cell culture, C57BL/6 mice were purchased from the Jackson Laboratory (Bar Harbor, Me.). Bone marrow-derived macrophages (BMDM) and murine embryonic fibroblasts (MEF) were prepared by using standard protocols that were approved by the TSRI Animal Care and Use Committee. L929/NCTC clone 929 (connective tissue, mouse) cell lines were purchased from ATCC (Manassas, Va.). MEFs and L929 cell line were maintained in GM (see above). BMDM were cultured in 70% GM and 30% L929 conditioned medium. In general, cells (˜60-70% confluence) were incubated in fresh medium for 12-14 h before stimulation.\nAntibodies and Western blot analysis. Anti-eIF2α, phospho-eIF2α[…](p-eIF2α), p38, p-p38 (Thr180/Tyr132), p-RelA (Ser536), p-I κB ? 32/36), PARP 20 antibodies were purchased from Cell Signaling; anti-RelA, I κB α, IκBβ were from Santa Cruz Biotechnology. Cellular extracts were prepared and analyzed by Western blot assay as previously described.^E3\nCell stimulation. In all experiments, BMDM were stimulated with LPS (100 ng/ml), AHL (10-25 μM; usually BMDM and primary macrophages were stimulated by 25 μM of C12) or their combination as indicated in the figure legends. If not indicated, cancer and normal cells were stimulated with 40 ng/ml of TNFα, 20 ng/ml TRAIL and 10 μM (in case of cancer cells) or 25 μM (in case of normal cells) of AHL."}, "[2]": {"test_system": "primary human hepatocytes", "assay": "Viability and apoptosis of primary human hepatocytes from normal donors", "type": "cell-based", "conditions": "hepatocytes from normal donors", "experimental": "FIG. 8: Safety and pro-apoptotic. activity of (C12). Cells were incubated with TRAIL, (C12), […] (Bor) or a combination of TRAIL and (C12) or Bor as indicated, and cell viability (top panels) or the cleavage of PARP (bottom panels) was determined. (A) Lung cancer cell line A549. (B) Primary human hepatocytes from normal donor.\nTherefore, to assess a potential utility of C12 for anti-cancer therapy, we compared the effects of these two compounds—(C12) and bartezomid (Bor)—on TRAIL-mediated apoptosis in cancerous A549 cells and primary human hepatocytes.\nCancer and normal cell culture. Lung cancer cell line A549 and colon cancer cell line HT29 were purchased from ATCC. Breast cancer cell line MDA-MB-468 was received from J. C. Reed (The Burnham Institute, La Jolla, Calif.). Cell lines were maintained in growth medium (GM): DMEM medium (4.5 g/l glucose) supplemented with 10% FBS (HyClone, Logan, Utah), L-glutamine, penicillin/streptomycin and nonessential ammo acids (Invitrogen, Carlsbad, Calif.). Normal human bronchial epithelial (NHBE) cells and normal human mammary epithelial (NHME) cells were obtained from Cambrex (East Rutherford, N.J.) and cultured as recommended by the manufacturer. Normal human colon smooth muscle cells were obtained from ScienCell Research Lab (San Diego, Calif.) and cultured as recommended by the manufacturer. Primary cultures of human hepatocytes (freshly plated; not cryopreserved) and culture medium were obtained from Celsis In Vitro Technologies (Baltimore, Md.). Upon receipt of the cells, the medium was gently aspirated from each well and replenished with InVitroGRO HI medium supplemented with Torpedo Antibiotic Mix (Celsis), and the plates were kept in a 5% CO2, at 37° C. in an incubator at saturating humidity. After 2-4 h, cells were stimulated as described in the text and FIG. legends.\nCytotoxicity was determined by using the XTT-based toxicology assay kit (Sigma, St. Louis, Miss.) in accordance with the manufacturer's instructions. For some experiments, to confirm the apoptotic nature of toxicity, cells were analyzed using protocols and instructions of the Annexin V-FITC apoptosis detection kit (Biovision, Mountain View, Calif.). In addition, caspase 3, 8 and 9 activities were determined by colorimetric assays (R&D System), and the data are expressed as fold increases compared to the values of untreated or control-treated cells (n=5)."}, "sXBP1 (UPR)": {"test_system": "sXBP1 (UPR)", "assay": "sXBP1 generation in mouse lung after administration", "type": "in vivo", "conditions": "administration into mouse lung, FIG. 1F", "source_text": "FIG. 1: C12 induces the UPR in mammalian cells. (A and B). Comparison of the macrophage responsiveness to P. aeruginosa (P.a.), S. typhimurium (S.t), and S. aureus (S.a.). RT-PCR assay of XBP1 (A) and Western blot analysis (B) of p38, its phosphorylated form (p-p38) as well as phosphorylated forms of PERK (p-PERK) and eIF2α (p-eIF2α) in cell extracts after treatment with bacteria are shown. (C) Macrophages were stimulated with P. aeruginosa wild type (wt) or lasI mutant (ΔlasI), and cell extracts (total RNA or total protein) were prepared and analyzed as in (A and B). (D and E) RT-PCR assay of XBP1 or actin in total RNA prepared from macrophages after treatment with compound (C12), i.e., the (S)-enantiomer, or with the (R)-enantiomer (C12R), or the hydrolysis product (C12h) are shown. (F) Total RNA was prepared from lung of mice after inoculation of vehicle (-) or (C12) and analyzed in (D). (G) Chemical structures of compounds (C12), (C12R) and (C12h). Compound (C12) is the (S)-enaniiomer of the compound of formula: […]\nImportantly, the similar requirements in the structural integrity of the lactone ring motif were also evident in response to other natural stereoisomer of the AHL family (Table 1). […]"}},
  "data": [
    {"compound": "CCCCCCCCCC(=O)CC(=O)N[C@H]1CCOC1=O", "note": "[Compound 1, N-(3-oxo-dodecanoyl) homoserine lactone]", "values": [
      {"measurement": "eIF2α phosphorylation in macrophages", "setting": "[1]; Western blot, FIG. 13b", "result": "induced eIF2α phosphorylation in a similar fashion"},
      {"measurement": "blocking LPS-induced re-synthesis of IκBα", "setting": "[1]; macrophages activated by LPS, FIG. 13c", "result": "equally effective"},
      {"measurement": "toxicity to human hepatocytes, compound alone or in combination with TRAIL", "setting": "[2]", "result": "practically healthy and intact"},
      {"measurement": "generation of sXBP1 in lung", "setting": "sXBP1 (UPR)", "result": "resulted in the generation of sXBP1"}
    ]}
  ]
}
